≈ marks a conversion by molar mass, not a printed value.

Series [1] has as its system Staphylococcus aureus (SAUR 9213). Kind of series: MIC by agar dilution, SAUR 9213. It counts as cell-based. The conditions noted are these: Staphylococcus aureus, Minimum Inhibitory Concentration, strain SAUR 9213. From the text: (§1) The oxazolidinone antibacterial agents of this invention have useful activity against a variety of organisms. The in vitro activity of compounds of this invention can be assessed by standard testing procedures such as the determination of minimum inhibitory concentration (MIC) by agar dilution as described in “Approved Standard. Methods for Dilution Antimicrobial Susceptibility Tests for Bacteria That Grow Aerobically”, 3rd. ed., published 1993 by the National Committee for Clinical Laboratory Standards, Villanova, Pa., USA. The activity of compounds of this invention against Staphylococcus aureus, Staphylococcus epidermidis, Streptococcus pneumoniae, Streptococcus pyogens, Enterococcus faecalis, Moraxella catarrhalis and H. influenzae is shown in Table 1.
On the technique in general: In agar dilution, organisms are placed on agar that contains the substance at set levels.

For series [2], the system named is Staphylococcus epidermidis (SEPI 30593). Kind of series: MIC by agar dilution, SEPI 30593. It counts as cell-based. The conditions noted are these: Staphylococcus epidermidis, Minimum Inhibitory Concentration, strain SEPI 30593.
Text: as §1

Series [3] concerns Enterococcus faecalis (EFAE 12712). Kind of series: MIC by agar dilution, EFAE 12712. In kind it is cell-based. The conditions noted are these: Enterococcus faecalis, Minimum Inhibitory Concentration, strain EFAE 12712.
Text: as §1

For series [4], the system named is Streptococcus pneumoniae (SPNE 9912). Kind of series: MIC by agar dilution, SPNE 9912. In kind it is cell-based. The following applies: Streptococcus pneumoniae, Minimum Inhibitory Concentration, strain SPNE 9912.
Text: as §1

Series [5] concerns Streptococcus pyogens (SPYO 152). Kind of series: MIC by agar dilution, SPYO 152. In kind it is cell-based. The following applies: Streptococcus, Minimum Inhibitory Concentration, strain SPYO 152.
Text: as §1

In series [6] the test system is H. influenzae (HINF 30063). Kind of series: MIC by agar dilution, HINF 30063. It counts as cell-based. The conditions noted are these: Haemophilus influenzae, Minimum Inhibitory Concentration, strain HINF 30063.
Text: as §1

The subject of series [7] is Enterococcus faecalis (EFAE 9217). Kind of series: MIC by agar dilution, EFAE 9217. In kind it is cell-based. The conditions noted are these: Enterococcus faecalis, Minimum Inhibitory Concentration, strain EFAE 9217.
Text: as §1

For series [8], the system named is Moraxella catarrhalis (MCAT 30607). Kind of series: MIC by agar dilution, MCAT 30607. It counts as cell-based. The conditions noted are these: Moraxella catarrhalis, Minimum Inhibitory Concentration, strain MCAT 30607.
Text: as §1

As a reminder, the melting point is the temperature, or range, at which the solid turns liquid. `CCC(=S)NC[C@H]1CN(c2ccc(N3CCN(C(=O)[C@@H](O)CO)CC3)c(F)c2)C(=O)O1` [EX 16, N-({(5S)-3-[3-fluoro-4-[4-((2S)-2,3-dihydroxypropanoyl)-1-piperazinyl]phenyl]-2-oxo-1,3-oxazolidin-5-yl}methyl)propanethioamide]: the melting point is 142 °C (dec.). Besides, in series [1], the MIC worked out at 4 µg/mL (≈ 8.8 µM). In series [2], this compound returned an MIC of 0.5 µg/mL (≈ 1.1 µM). The compound also displayed an MIC in [3] of 1 µg/mL (≈ 2.2 µM). This compound displayed an MIC in series [4] of 0.5 µg/mL (≈ 1.1 µM). For the same compound, the MIC in series [5] was 0.5 µg/mL (≈ 1.1 µM). For the same compound, the MIC in series [6] was determined as 8 µg/mL (≈ 17.6 µM). In series [7], this compound yielded an MIC of 0.5 µg/mL (≈ 1.1 µM). Moreover, in series [8], the MIC was found to be 2 µg/mL (≈ 4.4 µM).
With `CCC(=S)NC[C@H]1CN(c2ccc(N3CCN(C(=O)C4(O)CC4)CC3)c(F)c2)C(=O)O1` [EX 14, N-{[(5S)-3-(3-fluoro-4-{4-[(1-hydroxycyclopropyl)carbonyl]-1-piperazinyl}phenyl)-2-oxo-1,3-oxazolidin-5-yl]methyl}propanethioamide], the melting point was 185 to 186 °C (dec.). In series [1], this compound yielded an MIC of 4 µg/mL (≈ 8.88 µM). This compound yielded an MIC in series [2] of 1 µg/mL (≈ 2.22 µM). This compound yielded an MIC in series [3] of 2 µg/mL (≈ 4.44 µM). In addition, the MIC in [4] is 0.5 µg/mL (≈ 1.11 µM). The same compound gave an MIC in [5] of 1 µg/mL (≈ 2.22 µM). This compound also showed an MIC in series [6] of 32 µg/mL (≈ 71 µM). Besides, the MIC in series [7] amounted to 1 µg/mL (≈ 2.22 µM). The MIC in series [8] stood at 2 µg/mL (≈ 4.44 µM).
Turning to `CCC(=S)NC[C@H]1CN(c2ccc(N3CCN(C(=O)[C@@H](O)COC)CC3)c(F)c2)C(=O)O1` [EX 8, N-[((5S)-3-{3-fluoro-4-[4-((2S)-2-hydroxy-3-methoxypropanoyl)-1-piperazinyl]phenyl}-2-oxo-1,3-oxazolidin-5-yl)methyl]propanethioamide], the melting point is 190 to 191 °C (dec.). Moreover, the MIC in series [1] amounted to 2 µg/mL (≈ 4.27 µM). In series [2], this compound gave an MIC of 1 µg/mL (≈ 2.13 µM). This compound registered an MIC in series [3] of 2 µg/mL (≈ 4.27 µM). Also, the MIC in series [4] stood at 0.5 µg/mL (≈ 1.07 µM). Besides, the MIC in [5] stood at 0.5 µg/mL (≈ 1.07 µM). The compound further came in with an MIC in series [6] of 16 µg/mL (≈ 34.1 µM). The same compound yielded an MIC in series [7] of 1 µg/mL (≈ 2.13 µM). The compound also returned an MIC in series [8] of 2 µg/mL (≈ 4.27 µM).
With `CCC(=S)NC[C@H]1CN(c2ccc(N3CCN(C(=O)C(C)=O)CC3)c(F)c2)C(=O)O1` [EX 12, N-({(5S)-3-[3-fluoro-4-(4-pyruvoyl-1-piperazinyl)phenyl]-2-oxo-1,3-oxazolidin-5-yl}methyl)propanethioamide], the melting point is 173 to 175 °C (dec.). For the same compound, in [1], the MIC was 2 µg/mL (≈ 4.58 µM). The MIC in series [2] turned out to be 1 µg/mL (≈ 2.29 µM). Also, the MIC in series [3] was 1 µg/mL (≈ 2.29 µM). Besides, in [4], the MIC came to 0.5 µg/mL (≈ 1.15 µM). The MIC in series [5] is 0.5 µg/mL (≈ 1.15 µM). The same compound displayed an MIC in series [6] of 8 µg/mL (≈ 18.3 µM). For the same compound, the MIC in [7] amounted to 1 µg/mL (≈ 2.29 µM). This compound also yielded an MIC in [8] of 2 µg/mL (≈ 4.58 µM).
Compound `CCC(=S)NC[C@H]1CN(c2ccc(N3CCN(C(=O)COC(=O)OCCOC)CC3)c(F)c2)C(=O)O1` [EX 7, N-({(5S)-3-(3-fuoro-4-{4-[2-[(2-methoxyethoxy)carbonyloxy]acetyl]-1-piperazinyl}phenyl)-2-oxo-1,3-oxazolidin-5-yl}methyl) propanethioamide] gave a melting point of 150 to 151 °C. For the same compound, the MIC in series [1] stood at 2 µg/mL (≈ 3.8 µM). In [2], the MIC was 1 µg/mL (≈ 1.9 µM). In [3], this compound came in with an MIC of 2 µg/mL (≈ 3.8 µM). For the same compound, the MIC in [4] amounted to 0.25 µg/mL (≈ 0.475 µM). In addition, in series [5], the MIC came out at 0.25 µg/mL (≈ 0.475 µM). In addition, the MIC in series [6] was found to be 4 µg/mL (≈ 7.6 µM). Also, in series [7], the MIC stood at 2 µg/mL (≈ 3.8 µM). This compound also showed an MIC in [8] of 4 µg/mL (≈ 7.6 µM).
The compound `CCC(=S)NC[C@H]1CN(c2ccc(N3CCN(C(=O)COc4ccccc4)CC3)c(F)c2)C(=O)O1` [EX 15, N-[((5S)-3-{3-fluoro-4-[4-(2-phenoxyacetyl)-1-piperazinyl]phenyl}-2-oxo-1,3-oxazolidin-5-yl)methyl]propanethioamide] gave a melting point of 171 to 172 °C. The MIC in series [1] amounted to 2 µg/mL (≈ 4 µM). Further, in [2], the MIC worked out at 0.5 µg/mL (≈ 0.999 µM). The MIC in [3] was found to be 1 µg/mL (≈ 2 µM). This compound showed an MIC in series [4] of 0.25 µg/mL (≈ 0.499 µM). The compound also came in with an MIC in series [5] of 0.5 µg/mL (≈ 0.999 µM). Besides, the MIC in series [6] stood at 32 µg/mL (≈ 63.9 µM). For the same compound, in series [7], the MIC is 0.5 µg/mL (≈ 0.999 µM). The compound further displayed an MIC in series [8] of 2 µg/mL (≈ 4 µM).

Values taken from patent US6642238B2, “Oxazolidinone thioamides with piperazine amide substituents” (Pharmacia and Upjohn Company, priority 2000, dated 2003).
